“Also recorded” adds a separate entry of the source.
Columns and labels:
EBOV = conditions: intravenous 10 mg/kg per day for consecutive 12 days, treatment started three days after virus exposure; cited from earlier work
[1] = system: SARS-CoV-2 (2019-nCoV) virus (nCoV-2019BetaCoV/Wuhan/WIV04/2019 strain); experiment: Reduction of viral nucleic acid load of Vero E6 cells infected by SARS-CoV-2 (qRT-PCR of supernatant); assay type: cell-based; parameters: Virus genome copy number: unit not given here; conditions: for Virus genome copy number: 48 h, Vero E6, 100TCID50, supernatant
Vero E6 cells = experiment: Cytotoxicity test of drug (CCK-8 kit); assay type: cell-based; conditions: all test concentrations (0.14-100 μM), 48 hours

For `CCC(CC)COC(=O)[C@H](C)N[P@](=O)(OC[C@H]1O[C@@](C#N)(c2ccc3c(N)ncnn23)[C@H](O)[C@@H]1O)Oc1ccccc1` [Remdesivir, 2-ethylbutyl (2S)-2-[[[(2R,3S,4R,5R)-5-(4-aminopyrrolo[2,1-f][1,2,4]triazin-7-yl)-5-cyano-3,4-dihydroxyoxolan-2-yl]methoxy-phenoxyphosphoryl]amino]propanoate], the “EBOV-infected animals protected from death” value (EBOV) is listed as 100%, the “replication of EBOV” value (EBOV) is listed as “significantly inhibit” and the “Virus genome copy number” value ([1]; 0.14 μM) is listed as 6120820311.5. For the same compound, the “Virus genome copy number” value ([1]; 0.41 μM) was 1751863138.5, the “Virus genome copy number” value ([1]; 1.23 μM) was 879273650.5 and the “Virus genome copy number” value ([1]; 3.70 μM) was 20287512.5. The “Virus genome copy number” value ([1]; 11.11 μM) was 16308516.5, the “Virus genome copy number” value ([1]; 33.33 μM) was 12429732 and the “Virus genome copy number” value ([1]; 100 μM) was 9010444.5. For the same compound, the “inhibition of the replication of the SARS-CoV-2 virus genome in the infected supernatant” value ([1]; concentrations of 100 μM, 33 μM, 11.1 μM and 3.7 μM) was “could effectively inhibit”, the “reduction of the viral nucleic acid load” value ([1]; drug concentration of 33 μM, 48 hours after infection, Vero E6) was “an order of magnitude” and the “viral nucleic acid load in cells infected by SARS-CoV-2” value ([1]; micromolar concentration level) was “can reduce the viral nucleic acid load”. For the same compound, the “cytotoxicity (toxic effect on the cells)” value (Vero E6 cells) was “no cytotoxicity was observed; also recorded: no toxic effect”.

— US20210346411A1 (priority 2020, published 2021)
